# Columns and labels:
# [1] = Agonist activity at human GHSR expressed in CHO cells incubated for 60 min by FLIPR assay; assay type: cell-based; details: 1 h
# Rattus norvegicus [2] = experiment: Induction of growth hormone level in Juvenile Sprague-Dawley rat blood by measuring AUC(0 to 40 mins) at 0.2 mg/kg, po administered as single dose by ELISA method (reference value: 20.2+/-4.3 ng/mL); assay type: functional, organism-based
# Rattus norvegicus [3] = experiment: Induction of growth hormone level in Juvenile Sprague-Dawley rat blood at 0.5 mg/kg, po administered as single dose measured immediately by ELISA method (reference value: 28.5+/-8.7 ng/mL); assay type: functional
# Rattus norvegicus [4] = experiment: Induction of growth hormone level in adult Sprague-Dawley rat blood at 0.1 mg/kg, po administered as single dose measured immediately by ELISA method (reference value: 12.6+/-4.4 ng/mL); assay type: functional
# Rattus norvegicus [5] = experiment: Induction of growth hormone level in adult Sprague-Dawley rat blood at 0.1 mg/kg, po administered as single dose measured after 10 mins by ELISA method (reference value: 13.7+/-7.2 ng/mL); assay type: functional
# Rattus norvegicus [6] = experiment: Induction of growth hormone level in adult Sprague-Dawley rat blood at 0.2 mg/kg, po administered as single dose measured immediately by ELISA method (reference value: 12.6+/-4.4 ng/mL); assay type: functional
# Rattus norvegicus [7] = species on record: Rattus norvegicus; experiment: Induction of growth hormone level in 6 week-old Sprague-Dawley rat assessed as increase in body length measured after 10 days; assay type: functional, organism-based; details: time 10.0 day
# [8] = Oral bioavailability in male monkey at 2 mg/kg administered as single dose measured after 4 hrs; assay type: ADME, organism-based, Macaca mulatta; details: rhesus monkey, in vivo
# [9] = Clearance in male dog plasma at 0.5 mg/kg, iv administered as single dose measured after 4 hrs; assay type: ADME, organism-based, Canis lupus familiaris
# [10] = Volume of distribution in male dog at 0.5 mg/kg, iv administered as single dose measured after 4 hrs; assay type: ADME, organism-based, Canis lupus familiaris; details: in vivo
# [11] = AUC in male mouse at 2 mg/kg, po administered as single dose measured after 4 hrs; assay type: ADME, organism-based; details: in vivo
# [12] = Metabolic stability in human liver microsome assessed as hepatic clearance at 1 uM measured upto 60 mins in presence of NADPH by LC-MS/MS analysis; assay type: ADME; details: liver microsomes, read-out: CLH
# [13] = Metabolic stability in rat liver microsome assessed as intrinsic clearance at 1 uM measured upto 60 mins in presence of NADPH by LC-MS/MS analysis; assay type: ADME; details: liver microsomes, read-out: CLH
# [14] = Metabolic stability in rat liver microsome assessed as hepatic clearance at 1 uM measured upto 60 mins in presence of NADPH by LC-MS/MS analysis; assay type: ADME; details: liver microsomes, read-out: CLH
# [15] = Metabolic stability in mouse liver microsome assessed as intrinsic clearance at 1 uM measured upto 60 mins in presence of NADPH by LC-MS/MS analysis; assay type: ADME; details: liver microsomes, read-out: CLH
# [16] = Plasma protein binding in mouse assessed as unbound fraction measured after 6 hrs by dialysis method; assay type: ADME, cell-free
# [17] = molecular target: T1, 5-hydroxytryptamine receptor 3A (Homo sapiens, UniProt P46098); experiment: Inhibition of human HTR3A by fluorimetry analysis
# T1 sequence (P46098 whole entry): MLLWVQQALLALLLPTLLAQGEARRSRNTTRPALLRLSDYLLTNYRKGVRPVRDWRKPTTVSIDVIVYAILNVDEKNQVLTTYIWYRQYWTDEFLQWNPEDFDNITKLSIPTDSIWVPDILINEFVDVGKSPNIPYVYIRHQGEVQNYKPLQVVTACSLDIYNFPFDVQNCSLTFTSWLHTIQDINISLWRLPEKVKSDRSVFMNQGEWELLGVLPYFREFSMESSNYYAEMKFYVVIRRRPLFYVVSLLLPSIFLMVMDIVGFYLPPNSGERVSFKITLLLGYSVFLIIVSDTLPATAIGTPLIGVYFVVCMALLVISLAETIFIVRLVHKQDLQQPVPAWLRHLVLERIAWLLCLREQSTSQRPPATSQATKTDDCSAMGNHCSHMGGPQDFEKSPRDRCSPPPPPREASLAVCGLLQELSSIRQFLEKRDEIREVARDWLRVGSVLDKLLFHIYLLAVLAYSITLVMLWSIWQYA
# [18] = Genotoxicity in Salmonella typhimurium TA98 by Ames test; assay type: toxicity; details: salmonella enterica subsp. enterica serovar typhimurium
# [19] = Genotoxicity in Salmonella typhimurium TA1537 by Ames test; assay type: toxicity; details: salmonella enterica subsp. enterica serovar typhimurium
# [20] = Toxicity in Sprague-Dawley rat assessed as effect on red pulp with a network of sinuses filled with erythrocytes at 10 to 100 mg/kg, po administered once daily for 14 days by H&E staining based analysis; assay type: organism-based; details: in vivo, 336 h, dose 10-100 mg/kg, time 14 day
# [21] = Toxicity in Sprague-Dawley rat assessed as effect on hepatic cords at 10 to 100 mg/kg, po administered once daily for 14 days; assay type: organism-based; details: in vivo, 336 h, dose 10-100 mg/kg, time 14 day
smiles,measurement,setting,value
CC(C)(N)C(=O)N[C@H](COCc1ccccc1)C(=O)N1CCC2=NN(C3CC3)C(=O)[C@]2(Cc2ccccc2)C1,EC50,[1],0.55 nM
same,AUC,Rattus norvegicus [2],102 ng·h/mL
same,Activity,Rattus norvegicus [3],42.8 ng/mL
same,Activity,Rattus norvegicus [4],21.2 ng/mL
same,Activity,Rattus norvegicus [5],216.1 ng/mL
same,Activity,Rattus norvegicus [6],22 ng/mL
same,Activity,Rattus norvegicus [7],Dose-dependent-effect
same,F,[8],15.88%
same,clearance,[9],35 mL/min/kg
same,Vd,[10],2.88 L/kg
same,AUC at 4 h,[11],93.1 ng·h/mL
same,CLint scaled at 1 µM,[12],127 mL/min/kg
same,microsomal CLint at 1 µM,[13],140 µL/min/mg
same,CLint scaled at 1 µM,[14],342 mL/min/kg
same,microsomal CLint at 1 µM,[15],330 µL/min/mg
same,fraction unbound at 6 h,[16],0.621
same,IC50,[17],3060 nM
same,Activity,[18],Non-toxic
same,Activity,[19],Non-toxic
same,Activity,[20],Non-toxic
same,Activity,[21],Non-toxic
